Tests used:
NCI-H460 cells = assay: Proliferation assay, NCI-H460; assay type: cell-based; conditions: Homo sapiens, NCI-H460, 96 h; 4 days, crystal violet; read-out: Inhibition of NCI-H460 cell proliferation IC50
Method: (§1) Cultivated tumour cells (HeLa, human cervical tumour cells, ATCC CCL-2; NCI-H460, human non-small cell lung carcinoma cells, ATCC HTB-177; A2780, human ovarian carcinoma cells, ECACC #93112519; DU 145, hormone-independent human prostate carcinoma cells, ATCC HTB-81; HeLa-MaTu-ADR, multidrug-resistant human cervical carcinoma cells, EPO-GmbH Berlin; Caco-2, human colorectal carcinoma cells, ATCC HTB-37; B16F10, mouse melanoma cells, ATCC CRL-6475) were plated at a density of 5,000 cells/well (DU145, HeLa-MaTu-ADR), 3,000 cells/well (NCI-H460, HeLa), 2,500 cells/well (A2780), 1,500 cells/well (Caco-2), or 1,000 cells/well (B16F10) in a 96-well multititer plate in 200 μL of their respective growth medium supplemented 10% fetal calf serum. After 24 hours, the cells of one plate (zero-point plate) were stained with crystal violet (see below), while the medium of the other plates was replaced by fresh culture medium (200 μl), to which the test substances were added in various concentrations (0 μM, as well as in the range of 0.001-10 μM; the final concentration of the solvent dimethyl sulfoxide was 0.5%). The cells were incubated for 4 days in the presence of test substances. Cell proliferation was determined by staining the cells with crystal violet: the cells were fixed by adding 20 μl/measuring point of an 11% glutaric aldehyde solution for 15 minutes at room temperature. After three washing cycles of the fixed cells with water, the plates were dried at room temperature. The cells were stained by adding 100 μl/measuring point of a 0.1% crystal violet solution (pH 3.0). After three washing cycles of the stained cells with water, the plates were dried at room temperature. The dye was dissolved by adding 100 μl/measuring point of a 10% acetic acid solution. The extinction was determined by photometry at a wavelength of 595 nm. The change of cell number, in percent, was calculated by normalization of the measured values to the extinction values of the zero-point plate (=0%) and the extinction of the untreated (0 μm) cells (=100%). […]

HeLa-MaTu-ADR cells = assay: Proliferation assay, HeLa-MaTu-ADR; assay type: cell-based; conditions: Homo sapiens, 96 h; 4 days, crystal violet; read-out: Inhibition of HeLa-MaTu-ADR cell proliferation IC50
Method: as §1

HeLa cells = assay: Proliferation assay, HeLa; assay type: cell-based; conditions: Homo sapiens, 96 h, 4 days, crystal violet, read-out: Inhibition of HeLa cell proliferation IC50
Method: as §1

CDK9/CycT1 = target: T1, CDK9/CycT1 (Homo sapiens, UniProt P50750); assay: CDK9/CycT1 high ATP kinase assay (Method 1b); assay type: biochemical; conditions: 2 mM ATP
T1 construct: Recombinant full-length His-tagged human CDK9 and CycT1; His; purchased Invitrogen PV4131; host or cells: insect cells
T1 sequence (P50750 whole entry): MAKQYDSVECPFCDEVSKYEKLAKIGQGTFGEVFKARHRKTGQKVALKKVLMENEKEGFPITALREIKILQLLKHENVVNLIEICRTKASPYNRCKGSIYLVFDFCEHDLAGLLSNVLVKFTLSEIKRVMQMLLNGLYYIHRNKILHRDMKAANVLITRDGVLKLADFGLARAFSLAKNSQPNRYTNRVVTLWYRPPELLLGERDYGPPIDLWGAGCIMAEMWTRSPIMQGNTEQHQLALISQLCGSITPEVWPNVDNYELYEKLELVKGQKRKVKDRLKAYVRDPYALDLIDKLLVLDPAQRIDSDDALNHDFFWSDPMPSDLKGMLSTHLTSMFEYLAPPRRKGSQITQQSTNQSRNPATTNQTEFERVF
T1 sequence (O60563 whole entry partner): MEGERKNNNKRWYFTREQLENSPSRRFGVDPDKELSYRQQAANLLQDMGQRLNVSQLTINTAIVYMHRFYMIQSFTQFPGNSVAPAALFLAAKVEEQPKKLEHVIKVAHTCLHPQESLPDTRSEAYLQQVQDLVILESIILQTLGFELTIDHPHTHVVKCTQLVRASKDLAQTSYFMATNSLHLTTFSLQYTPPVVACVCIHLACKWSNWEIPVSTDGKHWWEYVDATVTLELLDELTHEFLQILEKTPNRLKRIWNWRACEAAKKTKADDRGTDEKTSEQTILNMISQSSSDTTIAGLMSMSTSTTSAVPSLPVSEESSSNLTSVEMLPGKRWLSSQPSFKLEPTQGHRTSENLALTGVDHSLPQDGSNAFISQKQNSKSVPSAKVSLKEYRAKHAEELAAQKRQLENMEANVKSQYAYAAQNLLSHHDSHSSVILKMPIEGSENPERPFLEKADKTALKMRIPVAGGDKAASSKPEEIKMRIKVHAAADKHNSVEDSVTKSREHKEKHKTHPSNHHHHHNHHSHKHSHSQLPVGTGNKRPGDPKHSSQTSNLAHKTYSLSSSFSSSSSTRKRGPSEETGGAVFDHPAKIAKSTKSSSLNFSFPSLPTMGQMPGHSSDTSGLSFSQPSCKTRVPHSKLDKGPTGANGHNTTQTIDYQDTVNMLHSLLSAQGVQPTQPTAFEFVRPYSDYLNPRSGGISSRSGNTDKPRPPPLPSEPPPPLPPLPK
Method: 1b. CDK9/CycT1 High ATP Kinase Assay
CDK9/CycT1-inhibitory activity of compounds of the present invention at a high ATP concentration after preincubation of enzyme and test compounds was quantified employing the CDK9/CycT1 TR-FRET assay as described in the following paragraphs.
Recombinant full-length His-tagged human CDK9 and CycT1, expressed in insect cells and purified by Ni-NTA affinity chromatography, were purchase from Invitrogen (Cat. No PV4131). As substrate for the kinase reaction biotinylated peptide biotin-Ttds-YISPLKSPYKISEG (C-terminus in amid form) was used which can be purchased e.g. form the company JERINI peptide technologies (Berlin, Germany). For the assay 50 n1 of a 100 fold concentrated solution of the test compound in DMSO was pipetted into a black low volume 384 well microtiter plate (Greiner Bio-One, Frickenhausen, Germany), 2 μl of a solution of CDK9/CycT1 in aqueous assay buffer [50 mM Tris/HCl pH 8.0, 10 mM MgCl2, 1.0 mM dithiothreitol, 0.1 mM sodium ortho-vanadate, 0.01% (v/v) Nonidet-P40 (Sigma)] were added and the mixture was incubated for 15 min at 22° C. to allow pre-binding of the test compounds to the enzyme before the start of the kinase reaction. Then the kinase reaction was started by the addition of 3 μl of a solution of adenosine-tri-phosphate (ATP, 3.3 mM=>final conc. in the 5 μl assay volume is 2 mM) and substrate (1.67 μM=>final conc. in the 5 μl assay volume is 1 μM) in assay buffer and the resulting mixture was incubated for a reaction time of […] at 22° C. The concentration of CDK9/CycT1 was adjusted depending of the activity of the enzyme lot and was chosen appropriate to have the assay in the linear range, typical concentrations were in the range of 0.5 μg/mL. The reaction was stopped by the addition of 5 μl of a solution of TR-FRET detection reagents (0.2 μM streptavidine-XL665 [Cisbio Bioassays, Codolet, France] and 1 nM anti-RB(pSer807/pSer811)-antibody from BD Pharmingen [#558389] and 1.2 nM LANCE EU-W1024 labeled anti-mouse IgG antibody [Perkin-Elmer, product no. AD0077]) in an aqueous EDTA-solution (100 mM EDTA, 0.2% (w/v) bovine serum albumin in 100 mM HEPES/NaOH pH 7.0).
The resulting mixture was incubated 1 h at 22° C. to allow the formation of complex between the phosphorylated biotinylated peptide and the detection reagents. Subsequently the amount of phosphorylated substrate was evaluated by measurement of the resonance energy transfer from the Eu-chelate to the streptavidine-XL. Therefore, the fluorescence emissions at 620 nm and 665 nm after excitation at 350 nm was measured in a HTRF reader, e.g. a Rubystar (BMG Labtechnologies, Offenburg, Germany) or a Viewlux (Perkin-Elmer). The ratio of the emissions at 665 nm and at […] was taken as the measure for the amount of phosphorylated substrate. […]

| IC50 (NCI-H460 cells) [nM] | IC50 (HeLa-MaTu-ADR cells) [nM] | IC50 (HeLa cells) [nM] | IC50 (CDK9/CycT1) [nM] | Compound |
| --- | --- | --- | --- | --- |
| 317 | 212 | 101 | 16 | COc1cc(F)ccc1-c1cc(Nc2cc(CS(C)(=O)=O)ccn2)ncn1 [Example 1, 6-(4-Fluoro-2-methoxyphenyl)-N-{4-[(methylsulfonyl)methyl]pyridin-2-yl}pyrimidin-4-amine] |
| 95 | 54 | 76 | 2 | COc1cc(F)ccc1-c1cc(Nc2cc(CS(C)(=O)=O)cc(C)n2)ncn1 [Example 2, 6-(4-Fluoro-2-methoxyphenyl)-N-{6-methyl-4-[(methylsulfonyl)methyl]pyridin-2-yl}pyrimidin-4-amine] |
| 55 | 33 | 24 | 2 | COc1cc(F)ccc1-c1cc(Nc2cc(CS(C)(=O)=O)cc(C(F)(F)F)n2)ncn1 [Example 3, 6-(4-Fluoro-2-methoxyphenyl)-N-{4-[(methylsulfonyl)methyl]-6-(trifluoromethyl)pyridin-2-yl}pyrimidin-4-amine] |
|  |  |  | 11 | COc1cc(F)ccc1-c1cc(Nc2cc(CS(C)(=O)=O)cc(F)n2)ncn1 [Example 4, 6-(4-Fluoro-2-methoxyphenyl)-N-{6-fluoro-4-[(methylsulfonyl)methyl]pyridin-2-yl}pyrimidin-4-amine] |
